Experimental data reported in PubChem BioAssay AID190 (DTP/NCI, 2004).
Where “and” joins values, the source holds several entries; their conditions need not be identical. Equal entries are not always repeated. Inconclusive results and toxic doses are left out. How the source made its calls: active means survival T/C of 150% or more; inactive means T/C below 125% in these data.

System: AKR/Lw mice, AKR lymphoma ip, median survival T/C
Assay: NCI In Vivo Anticancer Drug Screen. Data for tumor model Lymphoma AKR (Transplanted) (intraperitoneal) in AKR/Lw mice
Details: endpoint: median survival time, higher = longer survival
Method: The antitumor activity of compounds was measured in mice bearing transplantable tumors. Survival or tumor size were measured and the results are expressed as the measurement made in the treated group (T) divided by the measurement made in the vehicle treated control group (C). The tumor model used in this assay is Lymphoma AKR (Transplanted) (intraperitoneal) in AKR/Lw mice

[1] = dose: 25.0 mg/kg/injection, schedule: Q04DX003 (ip), vehicle: saline
[2] = dose: 100.0 mg/kg/injection, schedule: Q01DX001 (ip), vehicle: saline
[3] = dose: 200.0 mg/kg/injection, schedule: Q01DX001 (ip), vehicle: saline
[4] = dose: 400.0 mg/kg/injection, schedule: Q01DX001 (ip), vehicle: saline
[5] = dose: 100.0 mg/kg/injection, schedule: Q01DX001 (ip), vehicle: Klucel (hydroxypropylcellulose) (HPC)
[6] = dose: 200.0 mg/kg/injection, schedule: Q01DX001 (ip), vehicle: Klucel (hydroxypropylcellulose) (HPC)
[7] = dose: 400.0 mg/kg/injection, schedule: Q01DX001 (ip), vehicle: Klucel (hydroxypropylcellulose) (HPC)

Measured: T/C

COC(=O)C1CC2C(Cl)=C(Cl)C1(Cl)C2(Cl)Cl (stereo not drawn)
inactive: [1] 108 % of control | dose: 50.0 mg/kg/injection, schedule: Q04DX003 (ip), vehicle: saline 100 % of control | [2] 96 % of control | dose: 100.0 mg/kg/injection, schedule: Q04DX003 (ip), vehicle: saline 95 % of control | [3] 105 % of control | [4] 103 % of control

CO[C@H]1/C=C/O[C@@]2(C)Oc3c(C)c(O)c4c(O)c(c(/C=N/N5C(C)CN(Cc6ccccc6)CC5C)c(O)c4c3C2=O)NC(=O)/C(C)=C\C=C\[C@H](C)[C@H](O)[C@@H](C)[C@@H](O)[C@@H](C)[C@H](OC(C)=O)[C@@H]1C (stereo partly drawn)
inactive: dose: 12.5 mg/kg/injection, schedule: Q01DX008 (ip), vehicle: Klucel (hydroxypropylcellulose) (HPC) 99 % of control | dose: 25.0 mg/kg/injection, schedule: Q01DX008 (ip), vehicle: Klucel (hydroxypropylcellulose) (HPC) 104 % of control | dose: 50.0 mg/kg/injection, schedule: Q01DX008 (ip), vehicle: Klucel (hydroxypropylcellulose) (HPC) 91 % of control | dose: 100.0 mg/kg/injection, schedule: Q01DX008 (ip), vehicle: Klucel (hydroxypropylcellulose) (HPC) 103 % of control | dose: 200.0 mg/kg/injection, schedule: Q01DX008 (ip), vehicle: Klucel (hydroxypropylcellulose) (HPC) 96 % of control | dose: 400.0 mg/kg/injection, schedule: Q01DX008 (ip), vehicle: Klucel (hydroxypropylcellulose) (HPC) 95 % of control

O=[N+]([O-])O.[Ga]
inactive: dose: 1.25 mg/kg/injection, schedule: Q01DX001 (ip), vehicle: saline 102 % of control | dose: 2.5 mg/kg/injection, schedule: Q01DX001 (ip), vehicle: saline 102 % of control | dose: 2.5 mg/kg/injection, schedule: Q01DX009 (ip), vehicle: saline 114 % of control | dose: 2.5 mg/kg/injection, schedule: Q04DX003 (ip), vehicle: saline 87 % of control | dose: 3.1 mg/kg/injection, schedule: Q01DX001 (ip), vehicle: saline 105 % of control | dose: 5.0 mg/kg/injection, schedule: Q01DX001 (ip), vehicle: saline 102 % of control | dose: 5.0 mg/kg/injection, schedule: Q01DX009 (ip), vehicle: saline 91 % of control and 100 % of control | dose: 5.0 mg/kg/injection, schedule: Q04DX003 (ip), vehicle: saline 93 % of control and 108 % of control | dose: 6.2 mg/kg/injection, schedule: Q01DX001 (ip), vehicle: saline 94 % of control | dose: 6.2 mg/kg/injection, schedule: Q04DX003 (ip), vehicle: saline 102 % of control | dose: 7.5 mg/kg/injection, schedule: Q01DX009 (ip), vehicle: saline 86 % of control | dose: 8.0 mg/kg/injection, schedule: Q01DX009 (ip), vehicle: saline 100 % of control | dose: 10.0 mg/kg/injection, schedule: Q01DX001 (ip), vehicle: saline 92 % of control and 105 % of control | dose: 10.0 mg/kg/injection, schedule: Q01DX009 (ip), vehicle: saline 97 % of control and 111 % of control | dose: 10.0 mg/kg/injection, schedule: Q04DX003 (ip), vehicle: saline 87 % of control and 108 % of control | dose: 12.5 mg/kg/injection, schedule: Q01DX009 (ip), vehicle: saline 105 % of control | dose: 12.5 mg/kg/injection, schedule: Q04DX003 (ip), vehicle: saline 102 % of control | dose: 20.0 mg/kg/injection, schedule: Q01DX001 (ip), vehicle: saline 105 % of control | dose: 20.0 mg/kg/injection, schedule: Q01DX009 (ip), vehicle: saline 94 % of control and 102 % of control | dose: 20.0 mg/kg/injection, schedule: Q04DX003 (ip), vehicle: saline 93 % of control and 106 % of control | dose: 25.0 mg/kg/injection, schedule: Q01DX009 (ip), vehicle: saline 88 % of control and 105 % of control | [1] 94 % of control | dose: 40.0 mg/kg/injection, schedule: Q01DX001 (ip), vehicle: saline 105 % of control | dose: 50.0 mg/kg/injection, schedule: Q01DX009 (ip), vehicle: saline 105 % of control and 110 % of control and 113 % of control | dose: 64.0 mg/kg/injection, schedule: Q04DX003 (ip), vehicle: water 116 % of control | dose: 500.0 mg/kg/injection, schedule: Q01DX001 (ip), vehicle: saline 88 % of control and 95 % of control

Nc1n[nH]c(N)n1
inactive: dose: 37.5 mg/kg/injection, schedule: Q06HX012 (ip), vehicle: saline 96 % of control | dose: 37.5 mg/kg/injection, schedule: Q06HX016 (ip), vehicle: saline 100 % of control | dose: 50.0 mg/kg/injection, schedule: Q01DX010 (ip), vehicle: saline 106 % of control | dose: 75.0 mg/kg/injection, schedule: Q06HX008 (ip), vehicle: saline 100 % of control | dose: 75.0 mg/kg/injection, schedule: Q06HX012 (ip), vehicle: saline 93 % of control | dose: 75.0 mg/kg/injection, schedule: Q06HX016 (ip), vehicle: saline 96 % of control | dose: 100.0 mg/kg/injection, schedule: Q01DX010 (ip), vehicle: saline 103 % of control | dose: 125.0 mg/kg/injection, schedule: Q06HX004 (ip), vehicle: saline 116 % of control | dose: 150.0 mg/kg/injection, schedule: Q01DX009 (ip), vehicle: saline 103 % of control | dose: 150.0 mg/kg/injection, schedule: Q06HX008 (ip), vehicle: saline 93 % of control | dose: 150.0 mg/kg/injection, schedule: Q06HX012 (ip), vehicle: saline 110 % of control | dose: 150.0 mg/kg/injection, schedule: Q06HX016 (ip), vehicle: saline 103 % of control | dose: 175.0 mg/kg/injection, schedule: Q01DX010 (ip), vehicle: saline 109 % of control | dose: 200.0 mg/kg/injection, schedule: Q04DX003 (ip), vehicle: saline 106 % of control | dose: 250.0 mg/kg/injection, schedule: Q01DX010 (ip), vehicle: saline 112 % of control | dose: 250.0 mg/kg/injection, schedule: Q06HX004 (ip), vehicle: saline 90 % of control and 92 % of control and 119 % of control | dose: 300.0 mg/kg/injection, schedule: Q01DX009 (ip), vehicle: saline 100 % of control | dose: 300.0 mg/kg/injection, schedule: Q06HX008 (ip), vehicle: saline 107 % of control | dose: 300.0 mg/kg/injection, schedule: Q06HX012 (ip), vehicle: saline 100 % of control | dose: 375.0 mg/kg/injection, schedule: Q01DX010 (ip), vehicle: saline 116 % of control | dose: 400.0 mg/kg/injection, schedule: Q04DX003 (ip), vehicle: saline 110 % of control | dose: 450.0 mg/kg/injection, schedule: Q06HX008 (ip), vehicle: saline 107 % of control | dose: 450.0 mg/kg/injection, schedule: Q06HX012 (ip), vehicle: saline 92 % of control | dose: 500.0 mg/kg/injection, schedule: Q06HX004 (ip), vehicle: saline 88 % of control and 116 % of control | dose: 530.0 mg/kg/injection, schedule: Q04DX003 (ip), vehicle: saline 109 % of control | dose: 675.0 mg/kg/injection, schedule: Q06HX012 (ip), vehicle: saline 107 % of control | dose: 800.0 mg/kg/injection, schedule: Q04DX003 (ip), vehicle: saline 121 % of control | dose: 1000.0 mg/kg/injection, schedule: Q06HX008 (ip), vehicle: saline 92 % of control

Cc1cnc2c(N)[nH]nc2n1
inactive: dose: 25.0 mg/kg/injection, schedule: Q01DX001 (ip), vehicle: Klucel (hydroxypropylcellulose) (HPC) 100 % of control | dose: 50.0 mg/kg/injection, schedule: Q01DX001 (ip), vehicle: Klucel (hydroxypropylcellulose) (HPC) 97 % of control | [5] 106 % of control

COc1ccc(/C=C2\CCC3C(=O)CCCC3(C)C2=O)cc1 (stereo not drawn)
inactive: [2] 90 % of control | [3] 100 % of control | [4] 97 % of control

O=C(c1ccccc1)C1CCC1
inactive: [5] 95 % of control | [6] 95 % of control

Brc1cc(Br)c(-c2c(Br)cc(Br)cc2Br)c(Br)c1
inactive: [5] 103 % of control | [6] 100 % of control | [7] 96 % of control

O=C(O)c1ccc(SSc2ccc(C(=O)O)cn2)nc1
inactive: dose: 12.5 mg/kg/injection, schedule: Q01DX009 (ip), vehicle: Klucel (hydroxypropylcellulose) (HPC) 100 % of control | dose: 25.0 mg/kg/injection, schedule: Q01DX009 (ip), vehicle: Klucel (hydroxypropylcellulose) (HPC) 92 % of control | dose: 50.0 mg/kg/injection, schedule: Q01DX009 (ip), vehicle: Klucel (hydroxypropylcellulose) (HPC) 102 % of control | [5] 95 % of control and 102 % of control | [6] 90 % of control and 92 % of control | [7] 95 % of control and 97 % of control
